In the test the test system is PDE4. As to the kind of experiment: Evaluation of PDE4 inhibition (scintillation proximity assay). Type of test: biochemical. The conditions noted are these: inhibition rate relative to control, test compound at 1 μM. An outline of the steps:
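PDE4 was incubated 120 min at room temperature with [3H]-cAMP and compound in 50 mM Tris-HCl pH 7.5, 8.3 mM MgCl2, 1.7 mM EDTA, 0.3 mg/mL BSA. Product captured on ZnSO4-containing YSi-SPA beads and counted; inhibition calculated against DMSO control after no-enzyme blank subtraction.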
For the compound `COc1c(Cl)cc2nc(N3CCNC[C@@H]3C)oc2c1C` [Example 161, (S)-5-Chloro-6-methoxy-7-methyl-2-(2-methylpiperazin-1-yl)benzoxazole], the “PDE4 inhibitory activity (1 μM (%))” value worked out at 19%. The figure for `Cc1c(O)c(Cl)cc2nc(N3CCNC[C@@H]3C)oc12` [Example 162, (S)-5-Chloro-6-hydroxy-7-methyl-2-(2-methylpiperazin-1-yl)benzoxazole] is 35%; for `C[C@H]1CNCCN1c1nc2c(Br)cc(Cl)cc2o1` [Example 163, (S)-4-Bromo-6-chloro-2-(2-methylpiperazin-1-yl)benzoxazole] it is 52%. As for `C[C@H]1CNCCN1c1nc2c(-c3ccco3)cc(Cl)cc2o1` [Example 164, (S)-6-Chloro-4-(furan-2-yl)-2-(2-methylpiperazin-1-yl)benzoxazole], the figure is 75%.

Take `C[C@@H]1CNCCN1c1nc2c(-c3ccco3)cc(Cl)cc2o1` [Example 165, (R)-6-Chloro-4-(furan-2-yl)-2-(2-methylpiperazin-1-yl)benzoxazole]: the “PDE4 inhibitory activity (1 μM (%))” value came out at 31%. As for `C[C@H]1CNCCN1c1nc2c(-n3cccn3)cc(Cl)cc2o1` [Example 166, (S)-6-Chloro-2-(2-methylpiperazin-1-yl)-4-(1H-pyrazol-1-yl)benzoxazole], the figure is 71%; as for `C[C@H]1CNCCN1c1nc2cc(Br)ccc2o1` [Example 167, (S)-5-Bromo-2-(2-methylpiperazin-1-yl)benzoxazole], 16%; as for `COc1cc(C#N)cc2nc(N3CCNC[C@@H]3C)oc12` [Example 168, (S)-5-Cyano-7-methoxy-2-(2-methylpiperazin-1-yl)benzoxazole], 13%.

With `COc1c(Cl)cc2nc(N3CCNC[C@@H]3C)oc2c1OC` [Example 169, (S)-5-Chloro-6,7-dimethoxy-2-(2-methylpiperazin-1-yl)benzoxazole], the “PDE4 inhibitory activity (1 μM (%))” value is on record as 22%. Turning to `Cc1cc2oc(N3CCNC[C@@H]3C)nc2cc1Cl` [Example 170, (S)-5-Chloro-6-methyl-2-(2-methylpiperazin-1-yl)benzoxazole], the “PDE4 inhibitory activity (1 μM (%))” value turned out to be 15%. As to `COc1cc2oc(N3CCNC[C@@H]3C)nc2cc1Cl` [Example 171, (S)-5-Chloro-6-methoxy-2-(2-methylpiperazin-1-yl)benzoxazole], the “PDE4 inhibitory activity (1 μM (%))” value is recorded as 14%. The figure for `Cc1cc(N2CCCC2)cc2nc(N3CCNC[C@@H]3C)oc12` [Example 172, (S)-7-Methyl-5-(pyrrolidin-1-yl)-2-(2-methylpiperazin-1-yl)benzoxazole] is less than 10%; for `Cc1cc(-c2ccsc2)cc2nc(N3CCNC[C@@H]3C)oc12` [Example 173, (S)-7-Methyl-5-(thiophen-3-yl)-2-(2-methylpiperazin-1-yl)benzoxazole] it is 35%. The figure for `CCc1cc(Cl)cc2nc(N3CCNC[C@H]3C)oc12` [Example 174, (R)-5-Chloro-7-ethyl-2-(2-methylpiperazin-1-yl)benzoxazole] is 21%; for `FC(F)(F)Oc1c(Cl)cc(-c2nccs2)c2oc(N3CCNCC3)nc12` [Example 175, 5-Chloro-2-(piperazin-1-yl)-7-(thiazol-2-yl)-4-(trifluoromethoxy)benzoxazole] it is 96%.

Consider `C[C@@H]1CN(c2nc3c(OC(F)(F)F)c(Cl)cc(-c4nccs4)c3o2)CCN1` [Example 176, (R)-5-Chloro-2-(3-methylpiperazin-1-yl)-7-(thiazol-2-yl)-4-(trifluoromethoxy)benzoxazole], for which the “PDE4 inhibitory activity (1 μM (%))” value is given as 91%. The figure for `C[C@H]1CN(c2nc3c(OC(F)(F)F)c(Cl)cc(-c4nccs4)c3o2)CCN1` [Example 177, (S)-5-Chloro-2-(3-methylpiperazin-1-yl)-7-(thiazol-2-yl)-4-(trifluoromethoxy)benzoxazole] is 93%; for `C[C@@H]1CNCCN1c1nc2c(C(F)(F)F)c(Cl)cc(-c3ccccn3)c2o1` [Example 178, (R)-5-Chloro-2-(2-methylpiperazin-1-yl)-7-(pyridin-2-yl)-4-(trifluoromethyl)benzoxazole] it is 33%; for `C[C@@H]1CNCCN1c1nc2c(C(F)(F)F)c(Cl)cc(-c3nccs3)c2o1` [Example 179, (R)-5-Chloro-2-(2-methylpiperazin-1-yl)-7-(thiazol-2-yl)-4-(trifluoromethyl)benzoxazole] it is 79%.

As to `C[C@@H]1CNCCN1c1nc2c(C(F)(F)F)c(Cl)cc(-n3cccn3)c2o1` [Example 180, (R)-5-Chloro-2-(2-methylpiperazin-1-yl)=7-(1H-pyrazol-1-yl)-4-(trifluoromethyl)benzoxazole], the “PDE4 inhibitory activity (1 μM (%))” value is on record as 43%.

The record behind these values is patent US9890142B2, “PDE4 inhibitor” (Meiji Seika Pharma Co., Ltd., priority 2013, dated 2018).
